Results published in patent US9676756B2 (PORTOLA PHARMACEUTICALS, INC., priority 2012, dated 2017).

Key:
Format in all cases: biochemical
[1] = molecular target: T1, full length active recombinant SYK enzyme (Homo sapiens, UniProt P43405); assay: SYK tyrosine phosphorylation activity, LANCE TR-FRET kinase assay; conditions: 1 nM SYK, 100 μM ATP, 1 hour at room temperature
T1 construct: full length active recombinant SYK enzyme (Millipore, CA); purchased Millipore
Procedure: Potency of candidate molecules for inhibiting Syk tyrosine phosphorylation activity is assessed by measuring the ability of a test compound to inhibit Syk-mediated tyrosine phosphorylation of a Syk-specific substrate.
SYK tyrosine phosphorylation activity is measured using the LANCE™ Technology developed by Perkin Elmer Life and Analytical Sciences (Boston, Mass.). LANCE™ refers to homogeneous time resolved fluorometry applications using techniques such as time-resolved fluorescence resonance energy transfer assay (TR-FRET) (see generally for procedures in Perkin Elmer Application Note—How to Optimize a Tyrosine Kinase Assay Using Time Resolved Fluorescence-Based LANCE Detection, wwww.perkinelmer.com/lifesciences). The assay principle involves detection of a phosphorylated substrate using energy transfer from a phosphospecific europium-labeled antibody to streptavidin-allophycocyanin as an acceptor.
To test the ability of candidate molecules to inhibit SYK tyrosine phosphorylation activity, molecules are reconstituted in 30% DMSO and serially diluted 1:3 with the final dilution containing DMSO in the absence of the candidate molecule. The final DMSO concentration in the assay is 3%. Kinase assays are performed as a two part reaction. The first reaction is a kinase reaction that comprises a candidate molecule, full length active recombinant SYK enzyme (Millipore, CA) and biotin-labeled SYK-specific substrate biotin-[…]-OH. The second reaction involves termination of the kinase reaction and the simultaneous addition of the detection reagents-europium-labeled anti-phosphotyrosine reagent (Eu-W1024-PY100, Perkin Elmer, Boston, Mass.) and Streptavidin-Allophycocyanin detection reagent (SA-APC, Prozyme, CA). The kinase reaction is performed in a black U-bottom 96-well microtitre plate. The final reaction volume is 50 μL and contains a final concentration of 1 nM active SYK enzyme, 550 nM SYK-substrate, and 100 μM ATP diluted in a buffer containing 50 mM Tris pH 7.5, 5 mM MgCl2, and 1 mM DTT. The reaction is allowed to proceed for 1 hour at room temperature. The stop buffer contains 100 mM Tris pH 7.5, 300 mM NaCl2, 20 mM EDTA, 0.02% Brij35, and 0.5% BSA. The detection reagents are added to the reaction mixture at the following dilutions—1:500 for Eu-W1024-PY100 and 1:250 for SA-APC. The kinase reaction is terminated by the addition of 50 μL stop buffer containing the detection reagents. The detection is allowed to proceed for 1 hr at room temperature. Detection of the phosphorolated substrate in the absence and presence of inhibitors is measured in the TR-FRET instrument, Analyst HT (Molecular Probes, Sunnyvale, Calif.) and the condition for measurements are set up using CriterionHost Release 2.0 (Molecular Probes, Sunnyvale, Calif.). The settings used are a follows: excitation 360 nm, emission 665-7.5 nm, beam splitter 350 nm 50/50, flash 100 pulses, delay 60 us, integration 400 us, z-height 2 mm. Inhibition of SYK-tyrosine kinase activity is calculated as the maximum response observed in the presence of inhibitor, compared to that in the absence of inhibitor. IC50s are derived by non-linear regression analysis.

[2] = molecular target: T2, JAK3 (Homo sapiens, UniProt P52333); assay: JAK tyrosine phosphorylation activity, Z'-LYTE FRET kinase assay; conditions: catalytic domain recombinant kinase, Tyr6 peptide
T2 construct: 5 μl of catalytic domain recombinant Kinase enzyme+Tyr peptide substrate (Invitrogen, CA); purchased Invitrogen
Procedure: (§1) JAK and SYK tyrosine phosphorylation activity is measured using the Z'-LYTE™ Technology developed by Invitrogen Corporation (Carlsbad, Calif.). For JAK1, JAK2 and JAK3 the Z'-LYTE™ Kinase Assay Kit-Tyr6 Peptide (part number PV4122) was used. The Z'-LYTE™ biochemical assay employs a fluorescence resonance energy transfer (FRET) coupled-enzyme format and is based on the differential sensitivity of phosphorylated and non-phosphorylated peptides to proteolitic cleavage. The assay uses a synthetic peptide substrate that is labelled with a donor fluorophore (coumarin) and an acceptor fluorophore (fluorescein) that make up a FRET pair. In the primary reaction (the Kinase Reaction), the kinase transfers the γ-phosphate of ATP to a single tyrosine residue on the substrate, while the presence of a kinase inhibitor in the primary reaction suppresses phosphorylation. In the secondary reaction (the Development Reaction), a site-specific protease (the Development Reagent) is added. The development buffer quenches the Kinase Reaction, while the protease recognizes and cleaves non-phosphorylated Z'-LYTE™ peptide substrate. Cleavage disrupts FRET between the donor and acceptor fluorophores on the non-phosphorylated substrate, while uncleaved, phosphorylated substrate maintains FRET.
(§2) To test the ability of candidate molecules to inhibit JAK tyrosine phosphorylation activity, molecules are reconstituted in 100% DMSO and serially diluted 1:10 in polypropylene v-bottom microtiter plates. The candidate molecules are then diluted 1:25 into kinase buffer and 2.5 μl transferred into duplicate wells of a 384 well low volume black microtiter assay plate (Corning, USA). The final DMSO concentration in the assay is 1%. The kinase reaction contains 2.5 μl of a candidate molecule, 5 μl of catalytic domain recombinant Kinase enzyme+Tyr peptide substrate (Invitrogen, CA) and 2.5 μl ATP (Invitrogen, CA). The kinase reaction is allowed to precede for 1 hour at room temperature. The protease reaction is initiated by the addition of 5 μl Development Reagent (Invitrogen, CA). After 1 hour incubation at room temperature the fluorescence is measured using a FlexStation plate reader (Molecular Devices, Sunnyvale, Calif.). The reader settings used are as follows: Fluorescence mode, endpoint, top read, excitation 400 nm, emission 445 nm and 520 nm. Auto Cutoff 435 nm and 515 nm, PMT sensitivity high, 6 reads per well. Inhibition of JAK activity is calculated as the percent phosphorylation of substrate in the presence of inhibitor compared to the percent phosphorylation of substrate in the absence of inhibitor. IC50's were derived using Xlfit 4.3 (IDBS, UK), 4 parameter logistic model 205: Y=(A+((B−A)/(1+((C/x)^D)))).

[3] = molecular target: T3, JAK1 (Homo sapiens, UniProt P23458); assay: as above; conditions: catalytic domain recombinant kinase, Tyr6 peptide; for IC50: read-out: JAK1 IC50 % Inhibition
T3 construct: 5 μl of catalytic domain recombinant Kinase enzyme+Tyr peptide substrate (Invitrogen, CA); purchased Invitrogen
Procedure: as §1, §2

[4] = molecular target: T4, JAK2 (Homo sapiens, UniProt O60674); assay: as above; conditions: catalytic domain recombinant kinase, Tyr6 peptide
T4 construct: 5 μl of catalytic domain recombinant Kinase enzyme+Tyr peptide substrate (Invitrogen, CA); purchased Invitrogen
Procedure: as §1, §2

T4 sequence (O60674 849-1124 limits assumed): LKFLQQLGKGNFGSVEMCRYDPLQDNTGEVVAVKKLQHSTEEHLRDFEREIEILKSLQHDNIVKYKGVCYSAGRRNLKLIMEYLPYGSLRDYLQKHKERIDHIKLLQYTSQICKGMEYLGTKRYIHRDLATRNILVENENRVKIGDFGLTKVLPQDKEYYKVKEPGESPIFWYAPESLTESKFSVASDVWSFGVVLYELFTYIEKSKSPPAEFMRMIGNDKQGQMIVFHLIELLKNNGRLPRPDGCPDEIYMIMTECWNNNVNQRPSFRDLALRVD
T3 sequence (P23458 875-1153 limits assumed): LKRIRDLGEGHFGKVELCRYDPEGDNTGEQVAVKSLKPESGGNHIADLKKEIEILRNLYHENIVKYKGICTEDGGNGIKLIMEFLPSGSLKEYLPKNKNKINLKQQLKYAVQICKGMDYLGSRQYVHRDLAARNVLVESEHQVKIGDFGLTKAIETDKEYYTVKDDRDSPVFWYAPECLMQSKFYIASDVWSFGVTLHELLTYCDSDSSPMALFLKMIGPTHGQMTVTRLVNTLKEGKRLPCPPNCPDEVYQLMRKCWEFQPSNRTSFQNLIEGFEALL
T2 sequence (P52333 822-1111 limits assumed): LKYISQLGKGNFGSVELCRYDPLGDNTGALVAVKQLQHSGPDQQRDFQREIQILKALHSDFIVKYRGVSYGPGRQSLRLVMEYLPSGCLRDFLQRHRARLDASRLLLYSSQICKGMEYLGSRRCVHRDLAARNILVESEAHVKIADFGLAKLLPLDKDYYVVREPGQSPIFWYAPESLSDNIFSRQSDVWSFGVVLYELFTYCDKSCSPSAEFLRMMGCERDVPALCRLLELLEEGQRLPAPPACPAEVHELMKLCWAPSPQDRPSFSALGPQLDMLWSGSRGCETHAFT

IC50 [1] | JAK3 IC50 potency class [2] | IC50 [3] | JAK2 IC50 potency class [4] | JAK1 IC50 potency class [3] | SMILES
+++ (0.10 uM<IC50<0.01 uM) | +++ (0.10 uM<IC50<0.01 uM) |  | ++ (1.0 uM<IC50<0.10 uM) | ++ (1.0 uM<IC50<0.10 uM) | CC(C)c1ccc(Nc2ncc(C(N)=O)c(NC3CC3)n2)cc1 [Compound 59, 4-(cyclopropylamino)-2-((4-isopropylphenyl)amino)pyrimidine-5-carboxamide]
+++ (0.10 uM<IC50<0.01 uM) | ++++ (0.01 uM<IC50<0.001 uM) |  | ++++ (0.01 uM<IC50<0.001 uM) | +++ (0.10 uM<IC50<0.01 uM) | NC(=O)c1cnc(Nc2ccc(C3CCN(S(=O)(=O)C4CC4)CC3)cc2)nc1NC1CC1 [Compound 2, 4-(cyclopropylamino)-2-((4-(1-(cyclopropylsulfonyl)piperidin-4-yl)phenyl)amino)pyrimidine-5-carboxamide]
++ (1.0 uM<IC50<0.10 uM) | ++++ (0.01 uM<IC50<0.001 uM) |  | +++ (0.10 uM<IC50<0.01 uM) | +++ (0.10 uM<IC50<0.01 uM) | NC(=O)c1cnc(Nc2ccc(C3CCN(C(=O)N4CCCC4)CC3)cc2)nc1NC1CC1 [Compound 13, 4-(cyclopropylamino)-2-((4-(1-(pyrrolidine-1-carbonyl)piperidin-4-yl)phenyl)amino)pyrimidine-5-carboxamide]
++ (1.0 uM<IC50<0.10 uM) | ++++ (0.01 uM<IC50<0.001 uM) |  | +++ (0.10 uM<IC50<0.01 uM) | ++ (1.0 uM<IC50<0.10 uM) | CCS(=O)(=O)N1CCN(c2ccc(Nc3ncc(C(N)=O)c(NC4CC4)n3)cc2C#N)CC1 [Compound 48, 2-((3-cyano-4-(4-(ethylsulfonyl)piperazin-1-yl)phenyl)amino)-4-(cyclopropylamino)pyrimidine-5-carboxamide]
+++ (0.10 uM<IC50<0.01 uM) | +++ (0.10 uM<IC50<0.01 uM) |  | +++ (0.10 uM<IC50<0.01 uM) | ++ (1.0 uM<IC50<0.10 uM) | CCS(=O)(=O)N1CCN(c2ccc(Nc3ncc(C(N)=O)c(NC4CC4)n3)cc2Cl)CC1 [Compound 43, 2-((3-chloro-4-(4-(ethylsulfonyl)piperazin-1-yl)phenyl)amino)-4-(cyclopropylamino)pyrimidine-5-carboxamide]
+++ (0.10 uM<IC50<0.01 uM) | ++++ (0.01 uM<IC50<0.001 uM) |  | ++++ (0.01 uM<IC50<0.001 uM) | +++ (0.10 uM<IC50<0.01 uM) | CCN1CCC(c2ccc(Nc3ncc(C(N)=O)c(NC4CC4)n3)cc2)CC1 [Compound 15, 4-(cyclopropylamino)-2-((4-(1-ethylpiperidin-4-yl)phenyl)amino)pyrimidine-5-carboxamide]
+++ (0.10 uM<IC50<0.01 uM) | ++++ (0.01 uM<IC50<0.001 uM) |  | ++++ (0.01 uM<IC50<0.001 uM) | +++ (0.10 uM<IC50<0.01 uM) | NC(=O)c1cnc(Nc2ccc(C3CCN(C4CCCC4)CC3)cc2)nc1NC1CC1 [Compound 8, 2-((4-(1-cyclopentylpiperidin-4-yl)phenyl)amino)-4-(cyclopropylamino)pyrimidine-5-carboxamide]

Second part, the compound before the results:

SMILES | IC50 [1] | JAK3 IC50 potency class [2] | IC50 [3] | JAK2 IC50 potency class [4] | JAK1 IC50 potency class [3]
CCS(=O)(=O)N1CCN(c2c(F)cc(Nc3ncc(C(N)=O)c(NC4CC4)n3)cc2F)CC1 [Compound 50, 4-(cyclopropylamino)-2-((4-(4-(ethylsulfonyl)piperazin-1-yl)-3,5-difluorophenyl)amino)pyrimidine-5-carboxamide] | ++ (1.0 uM<IC50<0.10 uM) | ++ (1.0 uM<IC50<0.10 uM) | > 1000 nM | ++ (1.0 uM<IC50<0.10 uM) | 
CCOC(=O)N1CCC(c2ccc(Nc3ncc(C(N)=O)c(NC4CC4)n3)cc2)CC1 [Compound 11, ethyl 4-(4-((5-carbamoyl-4-(cyclopropylamino)pyrimidin-2-yl)amino)phenyl)piperidine-1-carboxylate] | +++ (0.10 uM<IC50<0.01 uM) | +++ (0.10 uM<IC50<0.01 uM) |  | +++ (0.10 uM<IC50<0.01 uM) | ++ (1.0 uM<IC50<0.10 uM)
NC(=O)c1cnc(Nc2ccc(C3CCN(c4ccccc4)CC3)cc2)nc1NC1CC1 [Compound 16, 4-(cyclopropylamino)-2-((4-(1-phenylpiperidin-4-yl)phenyl)amino)pyrimidine-5-carboxamide] | ++ (1.0 uM<IC50<0.10 uM) | +++ (0.10 uM<IC50<0.01 uM) | > 1000 nM | ++ (1.0 uM<IC50<0.10 uM) | 
NC(=O)c1cnc(Nc2ccc(C3=CCNCC3)cc2)nc1NC1CC1 [Compound 56, 4-(cyclopropylamino)-2-((4-(1,2,3,6-tetrahydropyridin-4-yl)phenyl)amino)pyrimidine-5-carboxamide] | +++ (0.10 uM<IC50<0.01 uM) | ++++ (0.01 uM<IC50<0.001 uM) |  | +++ (0.10 uM<IC50<0.01 uM) | +++ (0.10 uM<IC50<0.01 uM)
CS(=O)(=O)N1CCN(c2ccc(Nc3ncc(C(N)=O)c(NC4CC4)n3)cc2F)CC1 [Compound 41, 4-(cyclopropylamino)-2-((3-fluoro-4-(4-(methylsulfonyl)piperazin-1-yl)phenyl)amino)pyrimidine-5-carboxamide] | +++ (0.10 uM<IC50<0.01 uM) | ++++ (0.01 uM<IC50<0.001 uM) |  | ++++ (0.01 uM<IC50<0.001 uM) | +++ (0.10 uM<IC50<0.01 uM)
NC(=O)c1cnc(Nc2ccc(C3CCNCC3)cc2)nc1NC1CC1 [Compound 55, 4-(cyclopropylamino)-2-((4-(piperidin-4-yl)phenyl)amino)pyrimidine-5-carboxamide] | +++ (0.10 uM<IC50<0.01 uM) | ++++ (0.01 uM<IC50<0.001 uM) |  | ++++ (0.01 uM<IC50<0.001 uM) | +++ (0.10 uM<IC50<0.01 uM)
